Assay results as given in patent US11578056B2, “Solid forms comprising (S)-2-(2,6-dioxopiperidin-3-yl)-4-((2-fluoro-4-((3-morpholinoazetidin-1-yl)methyl)benzyl)amino)isoindoline-1,3-dione and salts thereof, and compositions comprising and methods of using the same” (Celgene Corporation, priority 2019, dated 2023).

System: Karpas-231 cell line
Test: Hematological cell line viability/apoptosis flow cytometry assay
Type: cell-based
Conditions: Karpas-231 (ALL), 120 h
Method: Cell Proliferation and Viability Assay Using Hematological Cell Lines: The following exemplary anti-proliferative assay uses exemplary hematological cell lines in the following. The in vitro growth inhibitory activity of Compound 1 described herein was evaluated using a 384-well flow cytometry assay.
The final concentration of DMSO was 0.1% (v/v). Following the addition of Compound 1 or DMSO and incubation for 120 hours, cell number and cell death were analyzed by flow cytometry (Attune®, Thermo Fisher) using Annexin V and the live-cell impermeant DNA dye, DRAQ7. Phosphatidylserine translocates from the inner layer to the outer layer of the cell membrane early in apoptosis and Annexin V binds to the exposed phosphatidylserine found on the surface of an apoptotic cell. The vital dye DRAQ7 is excluded by intact live cells and only stains cells that have died as a result of apoptosis or necrosis.
Flow cytometry data analysis was then performed using the Flow Jo_v10 software to determine the number of viable cells (Annexin V and DRAQ7 double negative staining cells) and percentage of apoptotic cells (Annexin V positive cells) for each condition. The live cell count for every concentration was normalized to the DMSO control (considered as 100%) to calculate the percentage of viable cells remaining after treatment and graphed using GraphPad Prism 7.03. The IC50 (50% inhibitory concentration) and Emax (maximum efficacy achieved) values were then calculated by performing nonlinear regression curve fitting using log(inhibitor) vs. normalized response—variable slope analysis on GraphPad Prism 7.03. Area under the curve (AUC) was calculated by performing area under curve analysis on GraphPad Prism 7.03. Similarly, for apoptosis analysis, the percentage of apoptosis combining both “early” (Annexin V positive and DRAQ7 negative) and “late” apoptosis (Annexin V and DRAQ7 positive) cell gates relative to DMSO was graphed using GraphPad Prism 7.03. The AUC, EC50 (concentration of compound that produces half-maximal apoptosis response) and Ymax (maximal percentage of apoptosis achieved) values from apoptosis curves were calculated by performing area under curve analysis and nonlinear regression curve fitting using log(agonist) vs. normalized response—Variable slope analysis on GraphPad Prism 7.03.
Dose-response proliferation curves for the panel of hematological cell lines and non-linear curve-fit regression were used to determine IC50, AUC, and Emax for % viable cells (Emax for viability varies between 100 at low doses and 0 at high doses, which corresponds to inhibition of all viable cells), and dose-response apoptosis curves were used to determine the EC50, AUC, and Ymax for % apoptosis (Ymax for apoptosis varies from 0 at low doses and 100 at higher doses which corresponds to death of all cells). […] Viability and apoptosis for all cell lines was determined by Annexin V/[…] flow cytometry.

Structure (SMILES): O=C1CC[C@H](N2C(=O)c3cccc(NCc4ccc(CN5CC(N6CCOCC6)C5)cc4F)c3C2=O)C(=O)N1 [Compound 1, (S)-2-(2,6-dioxopiperidin-3-yl)-4-((2-fluoro-4-((3-morpholinoazetidin-1-yl)methyl)benzyl)amino)isoindoline-1,3-dione]
- % Viable Cells AUC: 449.4
- % Viable Cells Emax: 0%
- Apoptosis AUC: 5.720
- Apoptosis Ymax: 5.00%
- EC50: 896 µM
- IC50 (read-out: % Viable Cells IC50): 484 nM
